# In PubChem BioAssay AID1963451 (Molecular Pharmacology Branch, DTP, NCI, 2024):
# Test system: 521955-158-R6-J3-PDC complex spheroid growth, % test/control
# Assay: Anticancer human tumor 521955-158-R6-J3-PDC patient-derived pancreatic carcinoma cell line growth inhibition [Asc]
# Conditions: for IC50: curve of first compound; for viability, T/C: stronger effect = lower value
# Summary of the method: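 Concentration series start at each agent's clinical Cmax, or at 10 microM when none is established, and drop in half-log steps; agents are applied alone or together to complex spheroids built with HUVEC and hMSC.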
# 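Further: spheroids exposed to compounds for 7 days.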
# 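Wherever viability, T/C is given: 100% = DMSO vehicle control wells.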
smiles,measurement,setting,value
C#Cc1c(F)ccc2cc(O)cc(-c3ncc4c(N5CC6CCC(C5)N6)nc(OCC56CCCN5CC(F)C6)nc4c3F)c12 (centres undefined) + Cc1c(S(C)(=O)=O)c(-c2cc(F)cc(N3CCN(c4ccc(NS(=O)(=O)c5ccc(NC(CCN6CCC(C(=O)OCCCP(=O)(O)O)CC6)CSc6ccccc6)c(S(=O)(=O)C(F)(F)F)c5)cc4)CC3)c2)c(-c2ccc(Cl)cc2)n1C(C)C,IC50,second compound 0.0316 µM,< 0.0316 µM
same,IC50,second compound 0.1 µM,< 0.0316 µM
same,IC50,second compound 0.316 µM,< 0.0316 µM
same,IC50,second compound 1 µM,< 0.0316 µM
same,IC50,second compound 3.16 µM,< 0.0316 µM
same,IC50,second compound 10 µM,< 0.0316 µM
same,"viability, T/C","second compound 0.0316 µM, first compound 0.0316 µM",49.8%
same,"viability, T/C","second compound 0.0316 µM, first compound 0.1 µM",44.9%
same,"viability, T/C","second compound 0.0316 µM, first compound 0.316 µM",23.1%
same,"viability, T/C","second compound 0.0316 µM, first compound 1 µM",24%
same,"viability, T/C","second compound 0.0316 µM, first compound 3.16 µM",18.4%
same,"viability, T/C","second compound 0.0316 µM, first compound 10 µM",15.9%
same,"viability, T/C","second compound 0.1 µM, first compound 0.0316 µM",46.2%
same,"viability, T/C","second compound 0.1 µM, first compound 0.1 µM",31.1%
same,"viability, T/C","second compound 0.1 µM, first compound 0.316 µM",23.3%
same,"viability, T/C","second compound 0.1 µM, first compound 1 µM",18.4%
same,"viability, T/C","second compound 0.1 µM, first compound 3.16 µM",17.8%
same,"viability, T/C","second compound 0.1 µM, first compound 10 µM",17.1%
same,"viability, T/C","second compound 0.316 µM, first compound 0.0316 µM",31.6%
same,"viability, T/C","second compound 0.316 µM, first compound 0.1 µM",34.9%
same,"viability, T/C","second compound 0.316 µM, first compound 0.316 µM",15.9%
same,"viability, T/C","second compound 0.316 µM, first compound 1 µM",15.6%
same,"viability, T/C","second compound 0.316 µM, first compound 3.16 µM",11.6%
same,"viability, T/C","second compound 0.316 µM, first compound 10 µM",9.78%
same,"viability, T/C","second compound 1 µM, first compound 0.0316 µM",16.1%
same,"viability, T/C","second compound 1 µM, first compound 0.1 µM",15.3%
same,"viability, T/C","second compound 1 µM, first compound 0.316 µM",11.9%
same,"viability, T/C","second compound 1 µM, first compound 1 µM",9.24%
same,"viability, T/C","second compound 1 µM, first compound 3.16 µM",7.76%
same,"viability, T/C","second compound 1 µM, first compound 10 µM",7.16%
same,"viability, T/C","second compound 3.16 µM, first compound 0.0316 µM",12.6%
same,"viability, T/C","second compound 3.16 µM, first compound 0.1 µM",11.4%
same,"viability, T/C","second compound 3.16 µM, first compound 0.316 µM",7.77%
same,"viability, T/C","second compound 3.16 µM, first compound 1 µM",7.76%
same,"viability, T/C","second compound 3.16 µM, first compound 3.16 µM",6.82%
same,"viability, T/C","second compound 3.16 µM, first compound 10 µM",3.79%
same,"viability, T/C","second compound 10 µM, first compound 0.0316 µM",8.21%
same,"viability, T/C","second compound 10 µM, first compound 0.1 µM",6.93%
same,"viability, T/C","second compound 10 µM, first compound 0.316 µM",5%
same,"viability, T/C","second compound 10 µM, first compound 1 µM",5.16%
same,"viability, T/C","second compound 10 µM, first compound 3.16 µM",3.49%
same,"viability, T/C","second compound 10 µM, first compound 10 µM",3.88%
C=CC(=O)N1CCN(c2nc(=O)n(-c3c(C)ccnc3C(C)C)c3nc(-c4c(O)cccc4F)c(F)cc23)C(C)C1 (centres undefined) + CCN1C(C(=O)NC23CCC(C(=O)O)(CC2)CC3)C(c2cccc(Cl)c2F)C2(C(=O)Nc3cc(Cl)ccc32)C12CCCCC2,IC50,second compound 0.00949 µM,> 10 µM
same,IC50,second compound 0.03 µM,> 10 µM
same,IC50,second compound 0.0949 µM,> 10 µM
same,IC50,second compound 0.3 µM,> 10 µM
same,IC50,second compound 0.949 µM,> 10 µM
same,IC50,second compound 3 µM,> 10 µM
same,"viability, T/C","second compound 0.00949 µM, first compound 0.0316 µM",121%
same,"viability, T/C","second compound 0.00949 µM, first compound 0.1 µM",111%
same,"viability, T/C","second compound 0.00949 µM, first compound 0.316 µM",107%
same,"viability, T/C","second compound 0.00949 µM, first compound 1 µM",106%
same,"viability, T/C","second compound 0.00949 µM, first compound 3.16 µM",114%
same,"viability, T/C","second compound 0.00949 µM, first compound 10 µM",109%
same,"viability, T/C","second compound 0.03 µM, first compound 0.0316 µM",94.3%
same,"viability, T/C","second compound 0.03 µM, first compound 0.1 µM",113%
same,"viability, T/C","second compound 0.03 µM, first compound 0.316 µM",103%
same,"viability, T/C","second compound 0.03 µM, first compound 1 µM",114%
same,"viability, T/C","second compound 0.03 µM, first compound 3.16 µM",101%
same,"viability, T/C","second compound 0.03 µM, first compound 10 µM",95.7%
same,"viability, T/C","second compound 0.0949 µM, first compound 0.0316 µM",119%
same,"viability, T/C","second compound 0.0949 µM, first compound 0.1 µM",91.2%
same,"viability, T/C","second compound 0.0949 µM, first compound 0.316 µM",118%
same,"viability, T/C","second compound 0.0949 µM, first compound 1 µM",103%
same,"viability, T/C","second compound 0.0949 µM, first compound 3.16 µM",108%
same,"viability, T/C","second compound 0.0949 µM, first compound 10 µM",101%
same,"viability, T/C","second compound 0.3 µM, first compound 0.0316 µM",101%
same,"viability, T/C","second compound 0.3 µM, first compound 0.1 µM",115%
same,"viability, T/C","second compound 0.3 µM, first compound 0.316 µM",107%
same,"viability, T/C","second compound 0.3 µM, first compound 1 µM",112%
same,"viability, T/C","second compound 0.3 µM, first compound 3.16 µM",109%
same,"viability, T/C","second compound 0.3 µM, first compound 10 µM",103%
same,"viability, T/C","second compound 0.949 µM, first compound 0.0316 µM",108%
same,"viability, T/C","second compound 0.949 µM, first compound 0.1 µM",105%
same,"viability, T/C","second compound 0.949 µM, first compound 0.316 µM",102%
same,"viability, T/C","second compound 0.949 µM, first compound 1 µM",107%
same,"viability, T/C","second compound 0.949 µM, first compound 3.16 µM",121%
same,"viability, T/C","second compound 0.949 µM, first compound 10 µM",92.2%
same,"viability, T/C","second compound 3 µM, first compound 0.0316 µM",91.8%
same,"viability, T/C","second compound 3 µM, first compound 0.1 µM",95.8%
same,"viability, T/C","second compound 3 µM, first compound 0.316 µM",97.7%
same,"viability, T/C","second compound 3 µM, first compound 1 µM",92.5%
same,"viability, T/C","second compound 3 µM, first compound 3.16 µM",102%
same,"viability, T/C","second compound 3 µM, first compound 10 µM",94.3%
